Measured values reported in article PMC6337497 (International Journal of Molecular Sciences, 2018).
“Also recorded” adds a separate entry of the source. Each block holds one compound with its values, some of them ahead of it.

Key:
DU145 cells [1] = test: MTT cell viability assay, DU145; type: cell-based, Human; settings: for GI50: 48 h treatment, MTT
Protocol: (§1) Human prostate cancer PC3 cells (CRL 1435, ATCC, Manassas, VA, USA) were grown in Ham’s F12 nutrient medium, human prostate cancer DU145 cells (HTB-81, ATCC, Manassas, VA, USA) in RPMI 1640 medium and human colorectal carcinoma HCT116 cells (CCL-247, ATCC, Manassas, VA, USA) in IMDM medium. All media (Biowest, Nuaillé, France) were supplemented with 10% Foetal Bovine Serum (Gibco-Thermo Fisher Scientific, Waltham, MA, USA), L-glutamine, penicillin, and streptomycin (Euroclone, Milan, Italy), and grown at 37 °C in a humidified 5% CO2 atmosphere.
(§2) DMSO was used as control.
(§3) The inhibition of cell proliferation was measured by colorimetric MTT assay and the concentration at which cellular growth is inhibited by 50% (GI50) was determined. Briefly, cells were seeded into 96-well plates at a density of 2000 cells/well. The following day, cells were treated with the indicated compounds and analyzed for cell viability after 48 h. 5 mg/mL thiazolyl blue tetrazolium bromide (Sigma-Aldrich, St. Louis, MO, USA) was added to each well at a final concentration of 0.5 mg/mL and the plates were incubated at 37 °C for 2 h. Medium containing unconverted MTT was removed and 100 µL MTT solvent (4 mM HCl, 0.1% NP-40 in isopropyl alcohol) was added to each well. The plate was gently rotated on an orbital shaker in the dark for 15 min, before the measurements of absorbance at 570 nm. The viability of untreated cells was arbitrarily set at 100%.

PC3 cells [2] = test: Cell cycle analysis (propidium iodide), PC3; type: cell-based, Human; settings: for effect on cell cycle distribution (in words): PC3, 48 h at GI50 dose
Protocol: (§4) Cells were harvested after 48 h drug treatments and DNA distribution analysis of cells stained with propidium iodide solution (propidium iodide 25 µg/mL, Na-Citrate 3.4 mM, NaCl 9.65 mM, NP-40 0.03%) was performed by an Epics cytofluorimeter (Beckman Coulter Srl, Milan, Italy).

[3] = pH-metric titration, acid-base behavior (UV-vis, HypSpec); type: physicochemical; settings: for pKa: aqueous solution diluted from a methanol mother solution, 25.0 °C, ionic strength 0.1 M NaNO3, read-out: pKa (keto-enol moiety)
Protocol: pH-metric titrations were performed in order to assess K3F acidity and predict the most abundant species in physiological condition. […] Overall protonation constants (βHL) were calculated from spectrophotometric data and optimized by means of HypSpec software (Supplementary Table S1). K3F23, K3F24 and K3F33 behaved as weak monoprotic acids, with a pKa value close to 8–8.50 associated to the keto-enol moiety. As for the other two ligands, namely K3F21 and K3F31, the acid-base equilibria were more complex in view of the polyprotic nature of the compounds, and three logβLH values were calculated. Species distribution curves (Supplementary Figure S2) provided reliable prediction of neutral and charged forms as function of pH, and consequently helped to envisage cell penetration and distribution in physiological conditions. […] As for K3F21 and K3F31, they behaved as less weak acids, in fact at pH 7 58% of K3F21 and 65% of K3F31 were found in the mono-dissociated negatively charged form (H2L^−), these percentages increased up to 74% and 86% respectively at pH 7.4. […] This outcome could be attributed to the stabilizing effect of the intramolecular hydrogen bond between the methoxyl and hydroxyl groups on the aromatic ring in the indissociated form of K3F21, which shifts the equilibrium in favor of the neutral species (H3L).
UV-vis spectrophotometric measurements were performed using Jasco V-570 spectrophotometer at 25.0 ± 0.1 °C in the 200–600 nm spectral range employing 1 cm quartz cells. Owing to the poor water solubility of the compounds, a methanol mother solution (5 × 10^−3 M) was diluted in water in order to give 50 µM solutions used for pH-metric titrations. The pH value was varied by adding small amounts of concentrated NaOH or HCl, 25 points in the pH range 3–10. A constant ionic strength of 0.1 M (NaNO3) was maintained in all the experiments. Each titration was performed at least three times. The overall protonation constants (logβLH) were evaluated from spectrophotometric data using the software HypSpec.

PC3 cells [4] = test: MTT cell viability assay, PC3; type: cell-based, Human; settings: for GI50: 48 h treatment, MTT
Protocol: as §1, §2, §3

[5] = Kinetic stability in physiological conditions (UV-vis); type: physicochemical; settings: after 24 h; PBS 0.01 M, NaCl 0.1M, pH = 7.4, 37 °C in darkness
Protocol: Figure 2 Stability and radical scavenging ability of K3F derivatives. (A) Residual % of K3F compounds vs. time (PBS 0.01 M, NaCl 0.1M, pH = 7.4, 37 °C in darkness). Residual % is calculated as At·100/A0, where At and A0 stand for absorbance at λmax at time t and time zero, respectively. (B) Percentage of inhibition of free DPPH radical ([DPPH^·] = 60 µM) in the presence of K3F compounds at increasing concentrations. Compounds concentration is expressed as molar ratio (compound/DPPH).
[…] 100 μM solutions of the ligands were prepared in 0.1 M Tris-HCl buffer (pH 7.4) with constant ionic strength (0.1 M NaNO3). Spectra were recorded every 30 min. All profiles were linearized by hyperbolic function (Equation (1)), which represents an empirical model that well describes drug decomposition or release. t/f% = at + b(1) where f% is the fraction of residual compound at time t (min) expressed as percentage referred to starting concentration at time zero.

DU145 cells [6] = test: Cell cycle analysis (propidium iodide), DU145; type: cell-based, Human; settings: for effect on cell cycle distribution (in words): DU145, 48 h at GI50 dose
Protocol: as §4

DU145 cells [7] = test: Western blot of total cellular lysates, DU145; type: cell-based, Human; settings: DU145, 48 h at GI50 dose
Protocol: (§8) Actin was used as loading control. Whole-cell protein extracts were prepared by resuspending cells into 1X SDS sample buffer (25 mM Tris-HCl pH 6.8, 1.5 mM EDTA, 20% glycerol, 2% SDS, 5% β-mercaptoethanol, 0.0025% Bromophenol blue). Equivalent amounts of cellular extracts were resolved by SDS-PAGE, electrotransferred to PVDF membrane (GE Healthcare Italia, Milan, Italy) and immunoblotted with the following primary antibodies: anti-phospo-H2AX (sc-101696), anti-p53 (DO1) (sc-126), anti-actin ([MUT]) (sc-1616) and anti-PARP (sc-8007) antibody from Santa Cruz Biotecnology, Inc, Dallas, TX, USA.; phospho-specific AKT antibody S473 (#9018) and T308 (#9275), Akt antibody (#9272 and #2967), phospho-specific ERK1/2 antibody T202/Y204 (#4370), ERK1/2 antibody (#4669), phospho-specific p38 MAPK antibody T180/Y182 (#9211), and p38 antibody (#9212) were purchased from Cell Signaling Technologies, Danvers, MA, USA. Membranes were blotted and scanned with Bio-Rad ChemiDocTM Touch Imaging System (Bio-Rad, Hercules, CA, USA), using chemiluminescent detection reagents from Cyanagen, Bologna, Italy (Westar ηC and Supernova HRP substrates for Western blotting).

PC3 cells [8] = test: Western blot of total cellular lysates, PC3; type: cell-based, Human; settings: PC3, 48 h at GI50 dose
Protocol: as §8

DU145 cells [9] = test: Cell migration (wound) assay, DU145; type: cell-based, Human; settings: DU145, GI50 dose, 16 h
Protocol: (§5) 4 × 10^5 prostate cancer cells were plated in a 12-well plate. Approximately 24 h later, when the cells were 100% confluent, the monolayer was scratched using a 200 µL pipette tip. […] Three biological replicates were performed. Three random pictures were taken for each treated well per experiment and the areas of the wounds measured using ImageJ software. The percentage of wound recovery was then calculated using the formula: (final area-initial area)/initial area × 100%.

PC3 cells [10] = test: Cell migration (wound) assay, PC3; type: cell-based, Human; settings: PC3, GI50 dose, 40 h
Protocol: as §5

PC3 cells [11] = test: RT-qPCR gene transcription, PC3; type: cell-based, Human; settings: PC3, 48 h at GI50 dose
Protocol: (§6) Data are presented as relative transcript levels, normalized with RPL21 housekeeping gene, with DMSO levels arbitrarily set at 1.
(§7) RNA was extracted from cells using RNeasy kit (Qiagen, Venlo, The Netherlands) and reversed transcribed with a Moloney murine leukemia virus reverse transcriptase (Promega, Madison, WI, USA). Quantitative real-time PCRs were performed using SsoAdvanced Universal SYBR Green Supermix (Bio-Rad, Hercules, CA, USA) on a Bio-Rad CFX Connect™ real-time PCR detection system. Primer sequences are available upon request. The housekeeping gene Rpl21 was used as a loading control. The relative fold change enrichments of real-time PCR samples were calculated with the formula 2^−(ΔΔCt), where −(ΔΔCt) = −[(Ct target − Ct Rpl21)treated − (Ct target − Ct Rpl21)DMSO].

DU145 cells [12] = test: RT-qPCR gene transcription, DU145; type: cell-based, Human; settings: DU145, 48 h at GI50 dose
Protocol: as §6, §7

DU145 cells [13] = test: K3F21/docetaxel co-administration, MTT and CompuSyn, DU145; type: cell-based, Human; settings: DU145, DTX 20nM co-administered with K3F21, 48 h
Protocol: as §3
The ability of K3F21 and docetaxel to act synergistically with regard to growth inhibition was determined using CompuSyn software (ComboSyn, Inc., freely available at http://www.combosyn.com). Combination index (CI) and drug reduction index (DRI) were calculated for each concentration of drugs mixture, as indicated in the text. CI <1, =1 or >1 indicates synergism, additive effect, or antagonism, respectively. DRI >1 or <1 indicates favorable or not favorable dose-reduction.

[14] = Antioxidant activity (DPPH assay); settings: [DPPH] = 60 µM, methanol, 120 min; read-out: IC50, DPPH radical scavenging
Protocol: The antioxidant activity of the compounds was evaluated in terms of hydrogen donating or radical scavenging ability, using the stable DPPH radical (1,1-diphenyl-2-picrylhydrazyl radical). A variable amount (15, 30, 45, 75, 105, and 150 µL) of a methanol solution (1.2 mM) of each compound was placed in a cuvette, and 3 mL of a 60 µM methanol solution of DPPH was added. Absorbance measurements were initiated immediately. The decrease in absorbance at 517 nm was monitored every minute up to 5′, then every 5′ up to 30′ and every 30′ until reaction reaches completion and absorbance stabilizes attaining a plateau after 120′. Methanol was used to zero the spectrophotometer. The absorbance of the DPPH radical without K3F compound, i.e., the control, was measured daily, and concentration was calculated applying Equation (2) (2) [DPPH^·]=A−1.006/10970
The percentage of inhibition (%In) of the DPPH radical by each sample was calculated according to the formula (3) %In=A0−At/A0×100 where A0 represents the absorbance of the control (DPPH radical) at time 0, while At refers to the absorbance of the mixture DPPH/antioxidant at time t (120 min). Values of absorbance were corrected taking into account volume dilution and all determinations were performed in triplicate.

metastatic CRPC = test system: metastatic CRPC; parameters: method as in PMID 12644816, PMID 11448901; settings: Phase II clinical trial; cited from earlier work

Compound: 2-((4Z,6E)-4-cinnamoyl-5-hydroxy-7-phenylhepta-4,6-dien-1-yl)isoindoline-1,3-dione [K3F33]
- GI50 (DU145 cells [1]): 23.3 µM
- effect on cell cycle distribution (in words) (PC3 cells [2]): doubled the percentage of G2/M cells; also recorded: significantly increases SubG1 events
- prevailing species ([3]; pH 7): neutral one (HL)
- GI50 (PC3 cells [4]): 21.8 µM
- residual percentage [5]: ~60%
- effect on cell cycle distribution (in words) (DU145 cells [6]): ability to arrest cell cycle progression

Compound: COc1cccc(/C=C/C(=O)C(CCCN2C(=O)c3ccccc3C2=O)C(=O)/C=C/c2cccc(OC)c2)c1 [K3F23]
- GI50 (DU145 cells [1]; Homo sapiens, DU-145): 12.5 µM
- effect on cell cycle distribution (in words) (PC3 cells [2]): doubled the percentage of G2/M cells
- pKa [3]: 8 to 8.5
- prevailing species ([3]; pH 7): neutral one (HL)
- GI50 (PC3 cells [4]; Homo sapiens, PC-3, 48 h): 12.4 µM
- effect on cell cycle distribution (in words) (DU145 cells [6]): both arrested the G2/M progression and induced cell death

Compound: COc1cc(/C=C/C(=O)C(CCCN2C(=O)c3ccccc3C2=O)C(=O)/C=C/c2ccc(OC(C)=O)c(OC)c2)ccc1OC(C)=O [K3F24]
- GI50 (DU145 cells [1]; Homo sapiens, DU-145): 13.2 µM
- effect on cell cycle distribution (in words) (PC3 cells [2]): doubled the percentage of G2/M cells
- pKa [3]: 8 to 8.5
- prevailing species ([3]; pH 7): neutral one (HL)
- GI50 (PC3 cells [4]; Homo sapiens, PC-3, 48 h): 16.7 µM
- effect on cell cycle distribution (in words) (DU145 cells [6]): ability to arrest cell cycle progression

Compound: O=C(/C=C/c1ccc(O)cc1)C(CCCN1C(=O)c2ccccc2C1=O)C(=O)/C=C/c1ccc(O)cc1 [K3F31]
- IC50 [14]: 120 µM
- mono-dissociated negatively charged form (H2L−) ([3]; pH 7): 65%
- mono-dissociated negatively charged form (H2L−) ([3]; pH 7.4): 86%

Compound: O=C1CCC(N2C(=O)c3ccccc3C2=O)C(=O)N1 (centres unmarked) [thalidomide]
- patients with a decline in PSA of ≥40% (metastatic CRPC): 30–40%

More lines, main results first:

- GI50 (DU145 cells [1]; Homo sapiens, DU-145): 17.3 µM
- GI50 (PC3 cells [4]; Homo sapiens, PC-3, 48 h): 21 µM
Compound: COc1cc(C=CC(=O)CC(=O)C=Cc2ccc(O)c(OC)c2)ccc1O [Curcumin, 1,7-bis [4-hydroxy-3-methoxyphenyl]-1,6-heptadiene-3,5-Dione, reference compound]
- ERK1/2 phosphorylation (DU145 cells [7]): increased
- phospho-p38 expression (DU145 cells [7]): no changes were observed
- γH2AX expression (marker of DNA damage) (DU145 cells [7]): increased γH2AX in PC3 only
- PC3 % CELLS G2/M (PC3 cells [2]; 48 h at GI50 concentration): 37%
- effect on cell cycle distribution (in words) (PC3 cells [2]): significantly increases SubG1 events
- ERK1/2 phosphorylation (PC3 cells [8]): increased
- phosphorylation of AKT in Ser473 and Thr308 (PC3 cells [8]): inhibited
- γH2AX expression (marker of DNA damage) (PC3 cells [8]): increased
- cell migration (wound recovery) (DU145 cells [9]): inhibitory effects on the migratory capacity
- cell migration (wound recovery) (PC3 cells [10]): inhibitory effects on the migratory capacity
- DU145 % CELLS SubG1 (DU145 cells [6]; 48 h at GI50 concentration): 5%
- effect on cell cycle distribution (in words) (DU145 cells [6]): mainly acts as a cytotoxic drug
- Noxa transcription (PC3 cells [11]): induced
- transcription of CDK inhibitors p21 and p27 (PC3 cells [11]): increased
- Noxa transcription (DU145 cells [12]): induced

- IC50 (DU145 cells [1]; Homo sapiens, DU-145, DU145, MTT assay): 0.017 µM
- IC50 (PC3 cells [4]; Homo sapiens, PC-3, PC3, MTT assay): 0.03 µM
Compound: CC(=O)O[C@@]12CO[C@@H]1C[C@H](O)[C@@]1(C)C(=O)[C@H](O)C3=C(C)[C@@H](OC(=O)[C@H](O)[C@@H](NC(=O)OC(C)(C)C)c4ccccc4)C[C@@](O)([C@@H](OC(=O)c4ccccc4)[C@H]21)C3(C)C [Docetaxel, reference compound]
- effect on cell cycle distribution (in words) (PC3 cells [2]): high cytotoxic effect associated to a robust increase in SubG1 events
- DTX drug reduction index (DRI) (DU145 cells [13]): 2.9
- effect on cell cycle distribution (in words) (DU145 cells [6]): high cytotoxic effect associated to a robust increase in SubG1 events
